# Results as given in patent US9334314B2, “Peptide compounds derived from melanotransferrin and uses thereof” (Theratechnologies Inc., priority 2011, dated 2016).
# How the values were obtained:
# [1] = system: in vivo neovascularisation induced by the growth factors FGF-2 and VEGF; assay: Matrigel plug angiogenesis assay; conditions: induced by FGF-2 and VEGF, nude mice, 7 days (FIG. 7)
# Description: Angiogenesis is considered to be indicated by the growth of blood vessels from subcutaneous tissue into a solid piece of Matrigel™. Specific pathogen-free, female Crl:CD-1®-nuBR nude mice were obtained from Charles River Laboratories (Lasalle, QC). All of the mice used were 5-10 weeks of age. Prior to injection, heparin was incubated with or without bFGF (250 ng/mL) and VEGF165 (200 ng/mL) for 5 min, then 1 mL of MEM was added and the mixture diluted into phenol red-free Matrigel™ on ice for a final concentration of 12.4 μg/mL heparin. Then, specific pathogen-free, female Crl:CD-1®-nuBR nude mice were subcutaneously injected under anesthesia in the right flank with 0.5 mL of Matrigel™ alone or with Matrigel™ containing bFGF and VEGF. After 7 days, mice were sacrificed and Matrigel™ implants were harvested, washed with PBS and photographed. The remaining implants were immediately frozen and lyophilized overnight in order to evaluate the hemoglobin (Hb) concentrations. Testing of anti-angiogenic substances was initiated at the time of Matrigel™ implantation. Samples were then crushed and resuspended in 0.1% Triton™ X-100. Samples were mixed frequently for 1 h and centrifuged at 12,000×g for 15 min to remove particles. The concentration of hemoglobin (Hb) in the supernatant was then determined directly by measuring the absorbance at 405 nm and compared with a standard curve of purified Hb Hemoglobin content was expressed in μg Hb/mg of dried sample.
# [2] = system: Human NCI-H460 lung carcinoma tumor xenograft; assay: Xenograft model antitumor assay, NCI-H460; type: in vivo, nude mice; conditions: 40 mg/Kg/day; for inhibition of NCI-460 tumor growth: nude mice (FIG. 5A); for NCI-460 tumor growth: nude mice (FIGS. 3A to 3C)
# Description: (§1) For tumor cell inoculation in nude mice, U-87 MG or NCI-H460 cells were harvested by trypsinization using a trypsin/EDTA solution. Cells were washed two times with phosphate-buffered saline Ca^2+—Mg^2+ free (PBS-CMF) and centrifuged. The resulting pellet was resuspended in 1% methyl-cellulose in serum-free EMEM at a concentration of 2.5×10^6 cells per 100 μL. Specific pathogen-free, female Crl:CD-1®-nuBR nude mice were anesthetized by O2/isoflurane inhalation and tumors were established by subcutaneous injection of 100 μL from cell suspension into the right flank. Tumors were measured in O2/isoflurane anesthetized mice twice a week using a digital caliper and tumor volume was calculated as: π/6×length×width^2. When the first mouse from control group held a tumor reaching 1000 mm^3, tumors were photographed and mice from every group were sacrificed. Experiments were performed on 8 animals for each group. Recombinant sMTf treatment toxicity was evaluated by monitoring the body weight of control and treated mice, considering that a weight loss>20% results in a toxic effect.
# [3] = system: Human U87 glioblastoma tumor xenograft; assay: Xenograft model antitumor assay, U87; type: in vivo, nude mice; conditions: 40 mg/Kg/day; for inhibition of U87 tumor growth: nude mice (FIG. 5B); for U87 tumor growth: nude mice (FIGS. 4A and 4B)
# Description: as §1
# [4] = system: NCI-H460 pulmonary carcinoma cells; assay: In vitro cell migration, NCI-H460 (Transwell / modified Boyden chambers); type: cell-based, human; conditions: various concentrations, dose-dependent manner (FIG. 2D)
# Description: (§2) HMEC-1 and NCI-H460 cell migration was performed using Transwell filters (8 μm pore size) pre-coated with 0.15% gelatin for 2 hours at 37° C. or overnight at 4° C. The Transwell filters were washed once with PBS and assembled in 24-well plates. To study the effect of sMTf-derived peptides on cell migration, the lower chambers were filled with 300 μL of serum-free cell culture medium with or without various concentrations of peptides (2×). […] Approximately 50 000 cells (HMEC-1) and 100 000 cells (NCI-H460) were resuspended in 100 μL of serum free medium and added into the upper chamber of each Transwell. Then, 400 μL of serum free medium were added into the lower chamber with or without various concentrations of peptides (2×). After 1 hour incubation, 300 μL of cell culture medium containing 20% serum were added in the lower chamber to stimulate cell migration (final peptide concentration 1×). The plates were then placed at 37° C. in 5% CO2195% air for 4 hours (HMEC-1) or 18 hours (NCI-H460). Cells that had migrated to the lower surface of the filters were fixed for 30 minutes with 10% formalin, stained 30 minutes with 0.1% crystal violet/20% MeOH, and washed twice with PBS. […] The cell migration was quantified in four fields per filters at 50× magnification using microscopy computer-assisted imaging (Northern Eclipse™ software). Results are expressed as a percentage of cell migration of treated cells compared to untreated cells.
# HMEC-1 endothelial cells [5] = assay: In vitro cell migration, HMEC-1 (Transwell / modified Boyden chambers); type: cell-based; conditions: various concentrations, dose-dependent manner (FIG. 2C)
# Description: as §2
# [6] = molecular target: plasminogen activation by urokinase-type plasminogen activator (uPA) (Homo sapiens, UniProt P00749); assay: In vitro plasminogen activation by uPA (colorimetric VLK-pNA assay); type: biochemical; conditions: various concentrations of peptide (FIG. 1B)
# Description: The in vitro enzymatic activity of uPA was measured using a colorimetric assay. To study the effect of sMTf-derived peptides on plasminogen activation by uPA, the reaction was performed in plasminogen activation buffer (50 mM Tris/HCl (pH 7.5), 150 mM NaCl and 50 mM CaCl2) in a final volume of 200 μL. This incubation medium also contained 30 nM plasminogen and 15 μg of the chromogenic plasmin substrate D-Val-Leu-Lys p-nitroanilide (VLK-pNA). The reaction was started by the addition of 1 ng of uPA. In this assay, the cleavage of VLK-pNA results in a p-nitroaniline molecule that absorbs at 405 nm. The reaction product was monitored at 37° C. during 3 hours every 2 minutes using a Microplate Thermomax™ Autoreader. The velocity of the VLK-pNA hydrolysis reaction was calculated and results are expressed in mAU/min.
# HMEC-1 endothelial cells [7] = conditions: up to 50 μM, 24 hours incubation (FIG. 6)
# Description: (§3) sMTf-derived peptides cellular toxicity on HMEC-1 and NCI-H460 were performed using [methyl-^3H]-thymidine incorporation assay. […] Approximately 5000 cells (HMEC-1 and NCI-H460) were resuspended with 200 μL of fresh culture medium, seeded into white 96-wells plate and placed at 37° C. in 5% CO2/95% air. After 24 hours, the medium was removed and 200 μL of serum-free cell culture medium was added to synchronize the cells. After another 24 hours, the medium was removed and 200 μL of fresh complete medium with or without various peptide concentrations were added. After 24 hours incubation with the peptides, the medium was remove and 200 μL (0.5 μCi) of [methyl-^3H]-thymidine was added and placed at 37° C. in 5% CO2/95% air for 4 hours. Then, the wells were gently washed twice with PBS at 37° C., incubated with 200 μL of EtOH:Acetic acid (3:1) for 10 minutes and dried under the hood. 50 μL of Microscint™-O was added per well, the plate was sealed, agitated for 3 minutes, and read on the microplate scintillation and luminescence counter (TopCount NXT, Packard). Results are expressed as a percentage of cell viability of treated cells compared to untreated cells.
# [8] = system: NCI-H460 pulmonary carcinoma cells; conditions: up to 50 μM, 24 hours incubation (FIG. 6)
# Description: as §3
Substance,in vivo neovascularisation of Matrigel implant (hemoglobin content) [1],inhibition of NCI-460 tumor growth [2],inhibition of U87 tumor growth [3],U87 tumor growth [3],migration of NCI-H460 cells [4],migration of HMEC-1 cells (HMEC-1 endothelial cells [5]),plasminogen cleavage by uPA [6],cellular toxicity on HMEC-1 cells (HMEC-1 endothelial cells [7]),cellular toxicity on NCI-H460 cells [8],NCI-460 tumor growth [2]
Ac-F-R-C-L-V-E-N-A-G-D-V-P-F-V-R-H-NH2 (Ac-FRCLVENAGDVPFVRH-NH2) [SEQ ID NO: 7],inhibit in vivo neovascularisation,,,,,,,,,
Ac-F-R-C-L-V-E-N-R-G-D-V-P-F-V-T-R-I-R-NH2 (Ac-FRCLVENRGDVPFVTRIR-NH2) [SEQ ID NO: 15],inhibit in vivo neovascularisation,37%,74%,inhibit U87 tumor growth,inhibit the migration,inhibit the migration,,,,
"Ac-FRCLVENAGDVAFVRH-NH2 [SEQ ID NO: 2, Ac-F-R-C-L-V-E-N-A-G-D-V-A-F-V-R-H-NH2]",,,,,inhibit the migration,inhibit the migration,stimulates plasminogen cleavage by uPA in a dose-dependent manner,do not demonstrate any cellular toxicity,do not demonstrate any cellular toxicity,
Ac-YSGAFRMLAEGAGDVAFVKHKKK-NH2 (Ac-YSGAFRMLAEGAGDVAFVKHKKK-NH2) [SEQ ID NO: 9],inhibit in vivo neovascularisation,42%,,,,,,,,inhibit NCI-460 tumor growth
Ac-F-R-C-L-V-E-N-R-G-D-V-P-F-V-K-R-E-R-F-NH2 (Ac-FRCLVENRGDVPFVKRERF-NH2) [SEQ ID NO: 13],inhibit in vivo neovascularisation,,,,inhibit the migration,inhibit the migration,,,,
Ac-F-R-C-L-V-E-N-A-G-D-V-A-F-V-R-H-K-K-K-NH2 (Ac-FRCLVENAGDVAFVRHKKK-NH2) [SEQ ID NO: 5],inhibit in vivo neovascularisation,45%,39%,inhibit U87 tumor growth,,,,,,inhibit NCI-460 tumor growth
SEQ ID NO: 10: sMTf-derived peptide; sequence shown only as a drawing in Table II (FRCLVENAGDVAFVRHKKKKKKKHRVFAVDGANEVLCRF),,69%,,,,,,,,inhibit NCI-460 tumor growth
